Measured values: patent US20260257992A1, “AGONISTS OF SMALL HETERODIMER PARTNER FOR CANCER THERAPY” (THE BOARD OF TRUSTEES OF THE UNIVERSITY OF ILLINOIS, priority 2023, published 2026)

How the values were obtained:
[1] = system: IL1b mRNA; assay: IL1b mRNA reduction in Raw cells; assay type: cell-based; design: key: ✓: using strict cutoffs with respect to DSHN for passing each metric; X: using strict cutoffs with respect to DSHN for passing each metric; conditions: pass/fail with respect to DSHN
Text: (§1) Development of a more efficacious NR0B2 agonist. While DSHN was a useful proof-of-concept small molecule, macrophages required high doses and chronic exposure for robust influences on subsequent Tregs expansion. […] Therefore, we synthesized several derivatives of DSHN and screened them using a reporter assay which makes use of the endogenous cholesterol homeostatic feedback loop, where FXR activation upregulates NR0B2, which then inhibits LXR and its normal induction of ABCA1. We then followed this screen with several others with stringent cutoffs: effect on endogenous ABCA1 and IL1β expression, reduction of Treg expansion in either macrophage or DC co-cultures, and low cellular toxicity (FIG. 5A, Table 4).

[2] = system: Lewis Lung tumors; assay: Lewis Lung tumors grown in the flank; assay type: in vivo, mouse
Text: FIG. 7A-7I. DSHN-OMe reduces tumor and metastatic growth in murine models, in a myeloid cell-NR0B2 dependent manner. (A) E0771 cells were grafted into control mice (NR0B2^+/+; LysMCre^+) or mice where NR0B2 was knocked out in myeloid immune cells (NR0B2^fl/fl; LysMCre^+). 8 days post-graft, daily treatment with placebo or DSHN-OMe was initiated and subsequent tumor growth followed through time. Different letters denote statistical difference on the final measurement (day 21, 2-Way ANOVA followed by Šidák's post-hoc, N=5-8). (B) Waterfall plot illustration of data in (A) showing tumor volume at final day of measurement. Asterisk indicates significant difference (Chi-squared test, P<0.05). (C) Lewis Lung cells were grafted into control mice (NR0B2^+/+; LysMCre^+) or mice where NR0B2 was knocked out in myeloid immune cells (NR0B2^fl/fl; LysMCre^+). 10 days post-graft, daily treatment with placebo or DSHN-OMe was initiated and subsequent tumor growth followed through time. […] (G) EMT6 metastatic lungs were assessed for Ki67 mRNA and (H) FOXP3 mRNA. (I) EMT6 metastatic lungs were assessed for CD8+ cytotoxic T cells (CD8+). […]
Since Tregs are considered a problem common to many solid tumor types, we reasoned that DSHN-OMe should have broad efficacy. To test this, we evaluated the ability of DSHN-OMe to influence the growth of murine Lewis Lung tumors grown in the flank.

[3] = Low cellular toxicity screen; assay type: cell-based; design: key: ✓: using strict cutoffs with respect to DSHN for passing each metric; X: using strict cutoffs with respect to DSHN for passing each metric; conditions: pass/fail with respect to DSHN
Text: as §1
Resazurin cell viability assay. 20,000 cells were seeded into 96 well f-bottom, black plates (Corning Costar) and cell viability was measured using 100 μL resazurin per well at 0.3 mg/mL (Acros Organics). The fluorescence signal was quantified by plate reader (560 nm excitation/590 nm emission) at 2-3 h.

CCN(CC)S(=O)(=O)c1cccc2cc(C(=O)OC)c(O)cc12 [DSHN-OMe, Methyl 5-(N,N-diethylsulfamoyl)-3-hydroxy-2-naphthoate]
IL1b mRNA reduction (Raw Cells) [1]: ✓
Lewis Lung tumor growth ([2]; NR0B2-replete mice, daily treatment from day 10, versus placebo): significantly reduced tumor growth
Lewis Lung anti-tumor effect, dependence on myeloid NR0B2 ([2]; NR0B2fl/fl, LysMCre+ versus replete mice): only observed in mice with replete myeloid cell expression of NR0B2
Low Toxicity [3]: ✓
